According to paper PMC5608353 (PLoS ONE, 2017):
In brackets after ≈: the same amount, converted by molar mass. Several values for one entry are separate records, joined by “and”; a condition that tells them apart may be missing. Equal entries are not always repeated. Where two headings read alike, the source gives them in different places. Where a SMILES comes first, the peptide text is derived from it. Bridges are numbered along the chain shown (N, C = ends).

How the values were obtained:
[1] = system: C. perfringens CVCC 46; format: cell-based, Clostridium perfringens type A
[2] = system: C. perfringens CVCC 46; details: for FIC: MIC in combination / MIC alone
[3] = system: C. perfringens CVCC 46; assay: microbe, parasite or virus in culture; details: Clostridium perfringens, CVCC46, 18 h
[4] = system: C. perfringens CVCC 51; assay: microbe, parasite or virus in culture; details: Clostridium perfringens, CVCC51, 18 h
[5] = system: C. perfringens CVCC 1137; assay: microbe, parasite or virus in culture; details: Clostridium perfringens, CVCC1137, 18 h
[6] = system: C. perfringens JT1; assay: microbe, parasite or virus in culture; details: Clostridium perfringens, JT1, 18 h
[7] = system: C. perfringens JZ10; assay: microbe, parasite or virus in culture; details: Clostridium perfringens, JZ10, 18 h
[8] = system: C. perfringens JC2; assay: microbe, parasite or virus in culture; details: Clostridium perfringens, JC2, 18 h
[9] = system: C. perfringens CVCC 46; assay: microbe, parasite or virus in culture; details: Clostridium perfringens, CVCC46, read-out: MICa (MIC of drug used alone)
[10] = system: C. perfringens CVCC 46; format: cell-based, Clostridium perfringens type A; remark: listed apart in the source
[11] = system: C. perfringens CVCC 46 genomic DNA; format: binding, Clostridium perfringens type A
[12] = system: C. perfringens genomic DNA; format: binding, Clostridium perfringens
[13] = system: C. perfringens CVCC 46; format: cell-based, Clostridium perfringens type A; remark: listed apart in the source
[14] = system: C. perfringens CVCC 46; details: CVCC 46, 18 h
[15] = system: C. perfringens CVCC 51; details: CVCC 51, 18 h
[16] = system: C. perfringens CVCC 1137; details: CVCC 1137, 18 h
[17] = system: C. perfringens JT1; details: JT1, 18 h
[18] = system: C. perfringens JZ10; details: JZ10, 18 h
[19] = system: C. perfringens JC2; details: JC2, 18 h
[20] = system: C. perfringens type C CVCC 61 cells; details: cited from earlier work
[21] = CVCC 46, 2×MIC, 1×10^5 CFU/mL, 37°C, colony counts

With `CN(C)[C@@H]1C(O)=C(C(N)=O)C(=O)[C@@]2(O)C(O)=C3C(=O)c4c(O)ccc(Cl)c4[C@@](C)(O)[C@H]3C[C@@H]12` [Aureomycin] as the compound, how does the “Time to 99.9% reduction of bacterial counts” value [1, 21] read?
The value was 2~4 h.

And the “Bacterial regrowth in time-kill curve” value ([1]; CVCC 46, 2×MIC, followed for 10 h)?
Its value is “regrowth of C. perfringens strain CVCC 46 was observed”.

What about the “MICC (MIC of drug used in combination)” value ([2]; combination Aureomycin-MP1102, CVCC 46) of the same compound?
Its value is 2.09 µM.

What about the FIC ([2]; combination Aureomycin-MP1102) of the same compound?
Its FIC is 0.25.

What about the “MICC (MIC of drug used in combination)” value ([2]; combination Aureomycin-NZ2114, CVCC 46) of the same compound?
The value was 4.18 µM.

What about the FIC ([2]; combination Aureomycin-NZ2114) of the same compound?
The FIC was 0.5.

And the MBC [3]?
The MBC was 8.36 µM (≈ 4 µg/mL).

What about the MIC [3] of the same compound?
The MIC was 4.18 µM (≈ 2 µg/mL).

What about the MIC [4] of the same compound?
The MIC was 1.04 µM (≈ 0.498 µg/mL).

What about the MIC [5] of the same compound?
The MIC was 0.52 µM (≈ 0.249 µg/mL).

And the MIC [6]?
Its MIC is 16.7 µM (≈ 8 µg/mL).

What about the MIC [7] of the same compound?
Its MIC is 16.7 µM (≈ 8 µg/mL).

What about the MIC [8] of the same compound?
The MIC was 16.7 µM (≈ 8 µg/mL).

What about the MIC [9] of the same compound?
Its MIC is 8.36 µM.

Which results are given for `CCC[C@@H]1C[C@@H](C(=O)N[C@@H]([C@H]2O[C@H](SC)[C@H](O)[C@@H](O)[C@H]2O)[C@@H](C)O)N(C)C1` [Lincomycin]?
Time to 99.9% reduction of bacterial counts [1, 21]: 2~4 h; MICC (MIC of drug used in combination) ([2]; combination Lincomycin-MP1102, CVCC 46): 4.34 µM; FIC ([2]; combination Lincomycin-MP1102): 0.5; MICC (MIC of drug used in combination) ([2]; combination Lincomycin-NZ2114, CVCC 46): 4.34 µM; FIC ([2]; combination Lincomycin-NZ2114): 0.5; MBC [3]: 8.68 µM (≈ 3.53 µg/mL); MIC [3]: 8.68 µM (≈ 3.53 µg/mL); MIC [4]: 4.3 µM (≈ 1.75 µg/mL); MIC [5]: 2.17 µM (≈ 0.882 µg/mL); MIC [6]: 2.2 µM (≈ 0.894 µg/mL); MIC [7]: > 278 µM; MIC [8]: > 278 µM; MIC [9]: 8.68 µM

Which “Bacterial regrowth in time-kill curve” value [1] does the source give for `CC[C@H](C)[C@@H]1NC(=O)[C@H](CO)NC(=O)[C@H](CCCCN)NC(=O)[C@@H]2CSSC[C@@H](C(=O)N[C@@H](Cc3ccc(O)cc3)C(=O)O)NC(=O)[C@H](CCCCN)NC(=O)[C@@H]3CSSC[C@H](NC(=O)[C@H](CCCCN)NC(=O)[C@H](C(C)C)NC(=O)[C@H](CC(=O)O)NC(=O)[C@H](CC(=O)O)NC(=O)[C@H](CCC(=O)O)NC(=O)[C@H](CCC(N)=O)NC(=O)[C@H](Cc4c[nH]c5ccccc45)NC(=O)[C@@H]4CCCN4C(=O)CNC(=O)[C@H](CC(N)=O)NC(=O)[C@@H](NC(=O)CNC(=O)[C@H](Cc4ccccc4)NC(=O)CN)CSSC[C@H](NC(=O)[C@H](Cc4ccc(O)cc4)NC(=O)CNC(=O)CNC(=O)[C@H](CCCCN)NC(=O)[C@H](Cc4ccc(O)cc4)NC(=O)CNC(=O)[C@H](CCCCN)NC1=O)C(=O)N[C@@H](C)C(=O)N[C@@H](CCCCN)C(=O)NCC(=O)NCC(=O)N[C@@H](Cc1ccccc1)C(=O)N[C@@H](C(C)C)C(=O)N3)C(=O)N[C@@H](Cc1c[nH]cn1)C(=O)N[C@@H](CC(N)=O)C(=O)N[C@@H](Cc1c[nH]cn1)C(=O)N2` [MP1102] (H-GFGCNGPWQEDDVKCHNHCKSIKGYKGGYCAKGGFVCKCY-OH; disulfide 4-30, 15-37, 19-39) here?
The value was “no bacterial regrowth”.

What about the “Time to 99.9% reduction of bacterial counts” value [1] of the same compound?
The value was at most 1 h.

What about the “PI-stained percentages of cells, range over time” value [10] of the same compound?
The value was 36.5~96.7%.

What about the “Binding to genomic DNA (gel retardation)” value [11] of the same compound?
Its value is “interacted with MDR C. perfringens CVCC 46 genomic DNA”.

What about the “Peptide/DNA mass ratio for complete retardation of DNA migration” value [11] of the same compound?
Its value is over 10.0.

What about the “Change of CD spectrum of genomic DNA” value [12] of the same compound?
Its value is “DNA ellipticity intensity decreased”.

What about the “Ratio of cells in phase I” value [13] of the same compound?
Its value is 8.14% and 13.65%.

And the MBC [14]?
Its MBC is 0.91 µM (≈ 3.99 µg/mL).

What about the MIC [14] of the same compound?
The MIC was 0.91 µM (≈ 3.99 µg/mL).

And the MIC [15]?
The MIC was 0.91 µM (≈ 3.99 µg/mL).

And the MIC [16]?
The MIC was 1.82 µM (≈ 7.98 µg/mL).

What about the MIC [17] of the same compound?
The MIC was 0.46 µM (≈ 2.02 µg/mL).

What about the MIC [18] of the same compound?
The MIC was over 14.5 µM.

And the MIC [19]?
Its MIC is over 14.5 µM.

What about the “MICa (MIC of drug used alone)” value [2] of the same compound?
The value was 1.82 µM.

What about the “FICI, range over the tested antibiotics” value ([2]; CVCC 46) of the same compound?
Its value is 0.375~1.0.

What about the “PI-stained percentages of cells” value [20] of the same compound?
Its value is 3.11~5.67%.
